Data as given in patent US9730940B2, “Purine inhibitors of human phosphatidylinositol 3-kinase delta” (priority 2012, dated 2017).

The molecules below were run against PI3K-alpha (Homo sapiens (Human), UniProt P42336) (assay: HTRF PI3K biochemical assay, alpha isoform). Conditions: ratio PI3K-alpha IC50 value/PI3K-delta IC50 value.
Sequence of PI3K-alpha (P42336 whole entry, looked up, canonical isoform): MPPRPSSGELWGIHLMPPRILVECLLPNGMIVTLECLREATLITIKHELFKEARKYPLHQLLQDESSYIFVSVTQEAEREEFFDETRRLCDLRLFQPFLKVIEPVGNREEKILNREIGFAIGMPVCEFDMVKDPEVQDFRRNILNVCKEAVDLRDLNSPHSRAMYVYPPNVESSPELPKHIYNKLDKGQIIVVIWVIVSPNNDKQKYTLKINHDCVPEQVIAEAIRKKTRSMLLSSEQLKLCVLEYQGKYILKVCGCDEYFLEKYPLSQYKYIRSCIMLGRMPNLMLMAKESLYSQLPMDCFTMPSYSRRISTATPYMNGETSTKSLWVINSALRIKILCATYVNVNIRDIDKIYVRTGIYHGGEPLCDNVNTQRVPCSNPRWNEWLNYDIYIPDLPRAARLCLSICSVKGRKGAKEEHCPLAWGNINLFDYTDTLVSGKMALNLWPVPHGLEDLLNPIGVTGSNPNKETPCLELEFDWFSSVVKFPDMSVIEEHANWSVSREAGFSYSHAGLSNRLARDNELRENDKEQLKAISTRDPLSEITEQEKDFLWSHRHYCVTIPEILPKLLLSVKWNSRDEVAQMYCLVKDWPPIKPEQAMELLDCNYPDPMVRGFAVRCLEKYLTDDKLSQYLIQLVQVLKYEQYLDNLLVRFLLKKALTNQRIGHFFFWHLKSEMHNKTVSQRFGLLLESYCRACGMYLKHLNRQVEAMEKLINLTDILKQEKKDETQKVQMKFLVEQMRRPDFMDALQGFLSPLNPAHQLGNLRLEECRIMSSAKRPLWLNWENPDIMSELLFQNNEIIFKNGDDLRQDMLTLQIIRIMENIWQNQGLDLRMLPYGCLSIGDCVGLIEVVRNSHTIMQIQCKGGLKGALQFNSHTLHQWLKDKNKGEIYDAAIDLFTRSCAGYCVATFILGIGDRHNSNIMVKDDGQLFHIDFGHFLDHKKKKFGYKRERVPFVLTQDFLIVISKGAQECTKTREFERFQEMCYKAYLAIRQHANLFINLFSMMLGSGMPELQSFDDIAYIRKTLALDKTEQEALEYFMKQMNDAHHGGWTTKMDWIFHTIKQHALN
Sequence of PI3K-alpha (P27986 whole entry partner, looked up, canonical isoform): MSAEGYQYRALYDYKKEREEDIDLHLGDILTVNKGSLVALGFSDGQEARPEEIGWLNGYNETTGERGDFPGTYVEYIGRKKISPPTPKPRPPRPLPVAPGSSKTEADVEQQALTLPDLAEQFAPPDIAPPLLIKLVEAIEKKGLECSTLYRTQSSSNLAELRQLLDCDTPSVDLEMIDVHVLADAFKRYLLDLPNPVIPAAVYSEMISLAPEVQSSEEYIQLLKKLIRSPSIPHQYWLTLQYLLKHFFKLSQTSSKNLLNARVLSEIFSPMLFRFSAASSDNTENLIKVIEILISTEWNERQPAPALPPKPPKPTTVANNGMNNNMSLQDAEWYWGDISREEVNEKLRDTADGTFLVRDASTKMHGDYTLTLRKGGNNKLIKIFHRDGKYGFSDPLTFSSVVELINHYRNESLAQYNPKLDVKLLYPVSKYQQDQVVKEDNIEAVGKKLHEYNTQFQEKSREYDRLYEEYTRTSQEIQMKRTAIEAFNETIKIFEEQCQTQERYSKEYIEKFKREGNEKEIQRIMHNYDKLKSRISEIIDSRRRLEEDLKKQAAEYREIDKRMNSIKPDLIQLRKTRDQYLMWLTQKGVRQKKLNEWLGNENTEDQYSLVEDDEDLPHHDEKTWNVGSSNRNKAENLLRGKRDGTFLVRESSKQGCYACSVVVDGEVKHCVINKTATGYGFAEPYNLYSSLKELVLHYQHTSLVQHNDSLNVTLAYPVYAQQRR

Row | Compound | Relative Selectivity versus PI3Kalpha
1 | CCn1ncc(-c2nc3c(O[C@H]4CCN(C(=O)c5ccncc5)C4)ncnc3n2C)c1C [Compound 2-64, 8-(1-ethyl-5-methyl-1H-pyrazol-4-yl)-9-methyl-6-{[(3S)-1-(pyridin-4-ylcarbonyl)pyrrolidin-3-yl]oxy}-9H-purine] | >10
2 | CCn1ncc(-c2nc3c(O[C@H]4CCN(C(=O)c5cnoc5C)C4)ncnc3n2C)c1C [Compound 2-65, 8-(1-ethyl-5-methyl-1H-pyrazol-4-yl)-9-methyl-6-({(3S)-1-[(5-methylisoxazol-4-yl)carbonyl]pyrrolidin-3-yl}oxy)-9H-purine] | >10
3 | CCn1ncc(-c2nc3c(O[C@H]4CCN(C(=O)c5ccccn5)C4)ncnc3n2C)c1C [Compound 2-66, 8-(1-ethyl-5-methyl-1H-pyrazol-4-yl)-9-methyl-6-{[(3S)-1-(pyridin-2-ylcarbonyl)pyirolidin-3-yl]oxy}-9H-purine] | >10
4 | CCn1ncc(-c2nc3c(O[C@H]4CCN(C(=O)c5cccn5C)C4)ncnc3n2C)c1C [Compound 2-67, 8-(1-ethyl-5-methyl-1H-pyrazol-4-yl)-9-methyl-6-({(3S)-1-[(1-methyl-1H-pyrrol-2-yl)carbonyl]pyrrolidin-3-yl}oxy)-9H-purine] | >10
5 | CCc1oncc1C(=O)N1CC[C@H](Oc2ncnc3c2nc(-c2cnn(CC)c2C)n3C)C1 [Compound 2-68, 6-({(3S)-1-[(5-ethylisoxazol-4-yl)carbonyl]pyrrolidin-3-yl}oxy)-8-(1-ethyl-5-methyl-1H-pyrazol-4-yl)-9-methyl-9H-purine] | >10
6 | CCn1ncc(-c2nc3c(O[C@H]4CCN(C(=O)c5oncc5C)C4)ncnc3n2C)c1C [Compound 2-69, 8-(1-ethyl-5-methyl-1H-pyrazol-4-yl)-9-methyl-6-({(3S)-1-[(4-methylisoxazol-5-yl)carbonyl]pyrrolidin-3-yl}oxy)-9H-purine] | >10
7 | CCn1ncc(-c2nc3c(O[C@H]4CCN(C(=O)c5ocnc5C)C4)ncnc3n2C)c1C [Compound 2-71, 8-(1-ethyl-5-methyl-1H-pyrazol-4-yl)-9-methyl-6-({(3S)-1-[(4-methyl-1,3-oxazol-5-yl)carbonyl]pyrrolidin-3-yl}oxy)-9H-purine] | >10
8 | CCn1ncc(-c2nc3c(O[C@H]4CCN(C(=O)c5cn[nH]c5)C4)ncnc3n2C)c1C [Compound 2-72, 8-(1-ethyl-5-methyl-1H-pyrazol-4-yl)-9-methyl-6-{[(3S)-1-(1H-pyrazol-4-ylcarbonyl)pyrrolidin-3-yl]oxy}-9H-purine] | 9
9 | CCn1ncc(-c2nc3c(O[C@H]4CCN(C(=O)c5cncn5C)C4)ncnc3n2C)c1C [Compound 2-73] | >10
10 | CCn1ncc(-c2nc3c(O[C@H]4CCN(C(=O)c5cc(C)[nH]n5)C4)ncnc3n2C)c1C [Compound 2-75, 8-(1-ethyl-5-methyl-1H-pyrazol-4-yl)-9-methyl-6-({(3S)-1-[(5-methyl-1H-pyrazol-3-yl)carbonyl]pyrrolidin-3-yl}oxy)-9H-purine] | 5
11 | CCn1ncc(-c2nc3c(O[C@H]4CCN(C(=O)C5CC(=O)N(C(C)C)C5)C4)ncnc3n2C)c1C (stereo partly drawn) [Compound 2-77, 4-{[(3S)-3-{[8-(1-ethyl-5-methyl-1H-pyrazol-4-yl)-9-methyl-9H-purin-6-yl]oxy}pyrrolidin-1-yl]carbonyl}-1-(1-methylethyl)pyrrolidin-2-one] | >10
12 | CCn1ncc(-c2nc3c(O[C@H]4CCN(C(=O)c5cc(C)n(C)c5C)C4)ncnc3n2C)c1C [Compound 2-79, 8-(1-ethyl-5-methyl-1H-pyrazol-4-yl)-9-methyl-6-({(3S)-1-[(1,2,5-trimethyl-1H-pyrrol-3-yl)carbonyl]pyrrolidin-3-yl}oxy)-9H-purine] | >10
13 | CCn1ncc(-c2nc3c(O[C@H]4CCN(C(=O)c5cnn(C)c5)C4)ncnc3n2C)c1C [Compound 2-80, 8-(1-ethyl-5-methyl-1H-pyrazol-4-yl)-9-methyl-6-({(3S)-1-[(1-methyl-1H-pyrazol-4-yl)carbonyl]pyrrolidin-3-yl}oxy)-9H-purine] | 6
14 | CCn1ncc(-c2nc3c(O[C@H]4CCN(C(=O)c5nnc(C)o5)C4)ncnc3n2C)c1C [Compound 2-81, 8-(1-ethyl-5-methyl-1H-pyrazol-4-yl)-9-methyl-6-({(3S)-1-[(5-methyl-1,3,4-oxadiazol-2-yl)carbonyl]pyrrolidin-3-yl}oxy)-9H-purine] | 5
15 | CCn1ncc(-c2nc3c(O[C@H]4CCN(C(=O)C5CCc6nnnn65)C4)ncnc3n2C)c1C (stereo partly drawn) [Compound 2-84, 6-{[(3S)-1-(6,7-dihydro-5H-pyrrolo[1,2-d]tetrazol-5-ylcarbonyl)pyrrolidin-3-yl]oxy}-8-(1-ethyl-5-methyl-1H-pyrazol-4-yl)-9-methyl-9H-purine (non-preferred name)] | >10
16 | CCc1nc(C)c(C(=O)N2CC[C@H](Oc3ncnc4c3nc(-c3cnn(CC)c3C)n4C)C2)o1 [Compound 2-86, 6-({(3S)-1-[(2-ethyl-4-methyl-1,3-oxazol-5-yl)carbonyl]pyrrolidin-3-yl}oxy)-8-(1-ethyl-5-methyl-1H-pyrazol-4-yl)-9-methyl-9H-purine] | >10

Row | Compound | Relative Selectivity versus PI3Kalpha
17 | CCn1ncc(-c2nc3c(O[C@H]4CCN(C(=O)c5cnoc5C(C)C)C4)ncnc3n2C)c1C [Compound 2-87, 8-(1-ethyl-5-methyl-1H-pyrazol-4-yl)-9-methyl-6-{[(3S)-1-{[5-(1-methylethyl)isoxazol-4-yl]carbonyl}pyrrolidin-3-yl]oxy}-9H-purine] | >10
18 | CCn1ncc(-c2nc3c(O[C@H]4CCN(C(=O)c5cocn5)C4)ncnc3n2C)c1C [Compound 2-88, 8-(1-ethyl-5-methyl-1H-pyrazol-4-yl)-9-methyl-6-{[(3S)-1-(1,3-oxazol-4-ylcarbonyl)pyrrolidin-3-yl]oxy}-9H-purine] | >10
19 | CCC(=O)N1CC[C@H](Oc2ncnc3c2nc(-c2cnc(OC)c(C)c2)n3CC)C1 [Compound 2-89, (S)-1-(3-((9-ethyl-8-(6-methoxy-5-methylpyridin-3-yl)-9H-purin-6-yl)oxy)pyrrolidin-1-yl)propan-1-one] | >10
20 | CCn1ncc(-c2nc3c(O[C@H]4CCN(C(C)=O)C4)ncnc3n2C)c1C [Compound 2-90, (S)-1-(3-((8-(1-ethyl-5-methyl-1H-pyrazol-4-yl)-9-methyl-9H-purin-6-yl)oxy)pyrrolidin-1-yl)ethanone] | >10
21 | CCn1ncc(-c2nc3c(O[C@H]4CCN(C(=O)C(C)C)C4)ncnc3n2C)c1C [Compound 2-91, (S)-1-(3-((8-(1-ethyl-5-methyl-1H-pyrazol-4-yl)-9-methyl-9H-purin-6-yl)oxy)pyrrolidin-1-yl)-2-methylpropan-1-one] | >10
22 | CCn1ncc(-c2nc3c(O[C@H]4CCN(C(=O)C(C)(C)C)C4)ncnc3n2C)c1C [Compound 2-92, (S)-1-(3-((8-(1-ethyl-5-methyl-1H-pyrazol-4-yl)-9-methyl-9H-purin-6-yl)oxy)pyrrolidin-1-yl)-2,2-dimethylpropan-1-one] | >10
23 | CCC(=O)N1CC[C@H](Oc2ncnc3c2nc(-c2cnn(CC)c2C)n3CC)C1 [Compound 2-93, (S)-1-(3-((9-ethyl-8-(1-ethyl-5-methyl-1H-pyrazol-4-yl)-9H-purin-6-yl)oxy)pyrrolidin-1-yl)propan-1-one] | >10
24 | CCC(=O)N1CC[C@H](Oc2ncnc3c2nc(-c2cnc(OC)c(C)c2)n3C)C1 [Compound 2-94, (S)-1-(3-((8-(6-methoxy-5-methylpyridin-3-yl)-9-methyl-9H-purin-6-yl)oxy)pyrrolidin-1-yl)propan-1-one] | >10
25 | CCC(=O)N1CC[C@H](Oc2ncnc3c2nc(-c2cnc(C(C)(C)C)s2)n3CC)C1 [Compound 2-95, (S)-1-(3-((8-(2-(tert-butyl)thiazol-5-yl)-9-ethyl-9H-purin-6-yl)oxy)pyrrolidin-1-yl)propan-1-one] | >10
26 | CCC(=O)N1CC[C@H](Oc2ncnc3c2nc(-c2cnc(C(C)(C)C)s2)n3C)C1 [Compound 2-96, (S)-1-(3-((8-(2-(tert-butyl)thiazol-5-yl)-9-methyl-9H-purin-6-yl)oxy)pyrrolidin-1-yl)propan-1-one] | >10
27 | CCC(=O)N1CC[C@H](Oc2ncnc3c2nc(-c2cnn(CC)c2C)n3C2CC2)C1 [Compound 2-97, (S)-1-(3-((9-cyclopropyl-8-(1-ethyl-5-methyl-1H-pyrazol-4-yl)-9H-purin-6-yl)oxy)pyrrolidin-1-yl)propan-1-one] | >10
28 | CCn1c(-c2cnc(C)nc2)nc2c(O[C@H]3CCN(C(=O)C4CC4)[C@@H]3C)ncnc21 [Compound 2-98, 6-{[(2R,3S)-1-(cyclopropylcarbonyl)-2-methylpyrrolidin-3-yl]oxy}-9-ethyl-8-(2-methylpyrimidin-5-yl)-9H-purine] | >10
29 | CCn1c(-c2cnc(C)nc2)nc2c(OC3CN(C(=O)C4CC4)CC3(F)F)ncnc21 (stereo not shown) [Compound 2-99, 6-{[1-(cyclopropylcarbonyl)-4,4-difluoropyrrolidin-3-yl]oxy}-9-ethyl-8-(2-methylpyrimidin-5-yl)-9H-purine] | >10
30 | CCn1c(-c2cnc(C)nc2)nc2c(O[C@H]3CCN(C(=O)[C@@H]4CCC[C@H]4N)C3)ncnc21 [Compound 2-101, (1R,2R)-2-{[(3S)-3-{[9-ethyl-8-(2-methylpyrimidin-5-yl)-9H-purin-6-yl]oxy}pyrrolidin-1-yl]carbonyl}cyclopentanamine] | >10
31 | CCn1c(-c2cnc(C)nc2)nc2c(O[C@H]3CCN(C(=O)C4CNC4)C3)ncnc21 [Compound 2-102, 6-{[(3S)-1-(azetidin-3-ylcarbonyl)pyrrolidin-3-yl]oxy}-9-ethyl-8-(2-methylpyrimidin-5-yl)-9H-purine] | >10
